{
  "source": "paper PMC6511062",
  "about": "“Preclinical candidate for the treatment of visceral leishmaniasis that acts through proteasome inhibition” (Proceedings of the National Academy of Sciences of the …, 2019)",
  "key": {"[1]": {"test_system": "human proteasome catalytic subunits (THP-1 extracts)", "assay": "Activity-based probe (UbiQ-018) labelling of THP-1 proteasome", "format": "binding", "conditions": "human THP-1 extracts, 100 µM", "quoted_text": "Activity-Based Probe Labelling of THP1 and L. donovani proteasome\nProteasome enriched fractions from THP1 (20 µg), L. donovani (10 µg) and L. donovani\nµM for 1 h. Proteasome enriched fractions were also incubated with DMSO as control.\nFor all proteasome labelling experiments, the active-site probe Me4BodipyFL-Ahx3Leu3VS (UbiQ-018) was used at final concentration of 500 nM in sucrose buffer (50 mM Tris buffer pH 7.5, 5 mM magnesium chloride, 1 mM EDTA, 50 mM NaCl, 250 mM sucrose, 2 mM ATP, 1 mM DTT). Proteasome enriched fractions treated with\nDMSO or test compounds, were incubated with the probe for 2h at RT. Samples were then denatured by addition of Laemmli sample buffer, heated to 95°C for 10 min and separated by electrophoresis on a 15% SDS-PAGE acrylamide gel. Following separation, gels were scanned in the fluorescein channel of a ChemiDoc reader (λ excitation/emission = 480/530 nm). Fluorescent proteins were excised and MALDI– TOF analysis carried out by the FingerPrints Proteomics service at the University of"}, "mouse lymphoma cells": {"test_system": "mouse lymphoma cells", "assay": "Mouse lymphoma assay", "protocol": "oxidative metabolism system (S9-mix). […]\nThe maximum […]\nconcentrations analysed were 410.45 µg/mL (1 mM, the maximum concentration in accordance with current guidelines and 100 µg/mL (limited by toxicity), for the 3 and […]\nThe mouse lymphoma screen was carried out using test methodology based on established procedures for in vitro gene mutation testing17,18,19,20. […]"}, "[2]": {"assay": "Pharmacokinetics in male CD-1 mice", "format": "in vivo, mouse", "protocol": "(§1) 5. Intrinsic clearance (CLint) […]\n6. Pharmacokinetic studies.\nMouse pharmacokinetic studies were conducted in male CD-1 mice and male beagle dogs. 3 animals per group were used for each study performed.\nA dose of 3 mg/kg was administered intravenously, in a bolus form to mice and infused over a 30 min period to dogs. For all the intravenous studies compound were dissolved in 5% DMSO/20% kleptose in saline.\nA dose of 10 mg/kg was orally administered by gavage to the two species in a suspension of 1% methylcellulose to investigate oral pharmacokinetics.\nPeripheral blood samples were obtained at 5, 15, 30 min, 1, 2, 4, 6 ,8 and 24 h after intravenous administration and 15, 30, 45 min,1, 2, 4, 6, 8 and 24 h after oral administration. Blood was 1/2 diluted with milliQ water and immediately frozen on dry ice until analysis. Quantification was performed by means of LC-MS/MS (API4000), with a lower limit of quantification of 1 ng/mL.\nPharmacokinetic parameters, namely clearance (CL), volume of distribution at steady state (Vss) and bioavailability (F%), were estimated using Phoenix, WinNonLin […]\nData analysis and calculation of pharmacokinetic parameters was performed using Phoenix, WinNonLin Version 6.3.\nFollowing the intravenous administration, the whole blood clearance was calculated"}, "[3]": {"test_system": "L. donovani axenic amastigotes", "assay": "L. donovani axenic amastigote drug sensitivity", "format": "cell-based", "conditions": "Leishmania donovani, concentration stated as 1X IC50, read-out: whole cell IC50", "protocol": "T. cruzi4, Leishmania donovani axenic amastigote, cidal axenic amastigote and intra-macrophage drug sensitivity assays were conducted as previously described5,6.\nThe rate of kill of compound 8 was determined in axenic amastigotes using the previously described cidal axenic assay5, with one minor modification. Instead of a single readout at 72 h, multiple identical plates were used and read at different time points (24, 48, 72 h). Rate of kill curves showing the luminescence signal at each time point for each concentration were plotted.\nas §1\nXLfit (idbs, UK) was used to calculate the exponential decay and consequently the rate constant (k) from the ratio of peak area of test compound to internal standard at each time-point. The rate of intrinsic clearance (CLint) of each test compound was then calculated using the following calculation: […]\nCompounds were dispensed into black 384-well assay plates (Greiner) by acoustic dispensing (LabCyte ECHO). […] Three proteasome activities were measured using a commercially available indirect enzyme-based luminescent assay kit (Promega) with Suc-LLVY-aminoluciferin, Z-LRR-aminoluciferin and Z-nLPnLD-aminoluciferin used as substrates for chymotrypsin-like, trypsin-like and caspase-like activities, respectively. […]"}, "[4]": {"conditions": "male, CD-1, whole blood, mouse, 3 mg/kg iv bolus"}},
  "data": [
    {"smiles": "O=C(Nc1ccc(F)c(-c2ccn3c(N4CCOCC4)cnc3n2)c1)N1CCCC1", "note": "[Compound 8]", "values": [
      {"measurement": "UbiQ-018 labelling of proteasome subunits", "setting": "[1]", "value": "no effect"},
      {"measurement": "MF (Mutation Frequency)", "setting": "mouse lymphoma cells; 3 hour +S9 treatment, 375 µg/mL", "value": "191.25 ×10-6"},
      {"measurement": "MF (Mutation Frequency)", "setting": "mouse lymphoma cells; 3 hour +S9 treatment, 410.445 µg/mL", "value": "222.38 ×10-6"},
      {"measurement": "mouse lymphoma screen result", "setting": "mouse lymphoma cells; 3 hours with S9-mix and 24 hours without S9-mix", "value": "negative"},
      {"measurement": "MF (Mutation Frequency)", "setting": "mouse lymphoma cells; 24 hour -S9 treatment, 40 µg/mL", "value": "75.89 ×10-6"},
      {"measurement": "MF (Mutation Frequency)", "setting": "mouse lymphoma cells; 24 hour -S9 treatment, 70 µg/mL", "value": "78.36 ×10-6"},
      {"measurement": "MF (Mutation Frequency)", "setting": "mouse lymphoma cells; 24 hour -S9 treatment, 100 µg/mL", "value": "86.96 ×10-6"},
      {"measurement": "clearance", "setting": "[2]; [4]", "value": "40.7 ± 13.6", "unit": "mL/min/kg"},
      {"measurement": "half-life", "setting": "[2]; [4]", "value": "39 ± 19.2", "unit": "min"},
      {"measurement": "Vd", "setting": "[2]; male, CD-1, whole blood, mouse, 3 mg/kg iv bolus, read-out: Vss", "value": 2.2, "unit": "L/kg"},
      {"measurement": "blood clearance", "setting": "[2]; mouse", "value": 41, "unit": "mL/min per kilogram"},
      {"measurement": "Cl (%LBF)", "setting": "[2]; mouse, 3 mg/kg iv", "value": 32, "unit": "%"},
      {"measurement": "bioavailability", "setting": "[2]; whole blood, CD-1 male mouse, 10 mg/kg po, read-out: F (oral bioavailability)", "value": 18, "unit": "%"},
      {"measurement": "IC50", "setting": "[3]", "value": 300, "unit": "nM"}
    ]}
  ]
}
